Reference: PubChem BioAssay AID1996
In brackets after ≈: the same amount, converted by molar mass.

Details: buffer; pH 7.4; 200.0 µM

Row | SMILES | solubility kinetic
1 | Cn1c(C2=C(O)CN(Cc3ccccc3)C2=N)nc2ccccc21 | > 47.8 µg/mL
2 | N#Cc1ccc(CSc2nnc3ccccn23)cc1 | > 39.9 µg/mL
3 | COc1ccc(NC(=O)N2CCCC(c3ccccc3)C2)cc1 (stereo not drawn) | 27.8 µg/mL (≈ 89.6 µM)
4 | CC(=O)c1cccc(NC(=O)CNC(=O)Cc2cccc3ccccc23)c1 | 8.4 µg/mL (≈ 23.3 µM)
5 | O=[N+]([O-])c1c(NCCCO)cc(N2CCCCCC2)c2nonc12 | 28.6 µg/mL (≈ 85.3 µM)
6 | COC(=O)c1cn(CC(=O)Nc2ccc(OC)cc2)c2ccccc12 | < 0.4 µg/mL
7 | O=c1[nH]c(O)c(C=Nc2ccc(Cl)c(C(F)(F)F)c2)c(=O)[nH]1 | 1.7 µg/mL (≈ 5.1 µM)
8 | CCCCN(C(=O)CSc1ncnc2sccc12)c1c(N)n(Cc2ccccc2)c(=O)[nH]c1=O | 3.9 µg/mL (≈ 7.85 µM)
9 | CC1CCC/C(=C\Nc2ccc(C(=O)O)c(O)c2)C1=O (stereo not drawn) | 39.4 µg/mL (≈ 143 µM)
10 | Cc1ccccc1Nc1ccc([N+](=O)[O-])cn1 | > 34.4 µg/mL
11 | Cc1csc(Nc2nc(N)c(C(=O)Nc3cc(Cl)ccc3F)o2)n1 | 3.1 µg/mL (≈ 8.43 µM)
12 | O=C(NC1CCCCC1)c1ccc(-c2ccccc2F)o1 | 5 µg/mL (≈ 17.4 µM)
13 | Cc1ccccc1N1CC(C(=O)NC2CCCC2)CC1=O (stereo not drawn) | > 43 µg/mL
14 | CC1CC(C)CN(C(=O)COC(=O)c2ccc(S(=O)(=O)N(C)c3ccccc3)cc2)C1 (stereo not drawn) | 7.8 µg/mL (≈ 17.5 µM)
15 | O=C(OCC(=O)N1CCN(S(=O)(=O)c2ccccc2)CC1)C1CCC1 | 54 µg/mL (≈ 147 µM)
16 | COC(=O)c1c(C)[nH]c(C(=O)C(C)OC(=O)C2CC2C)c1C (stereo not drawn) | > 46.1 µg/mL
17 | Cc1ccc(C(=O)NC2CCCCNC2=O)cc1C (stereo not drawn) | > 39.1 µg/mL
18 | Nc1ncnc2nc[nH]c12 | > 20.3 µg/mL
19 | Cc1ccnc(NC(=O)COC(=O)c2ccc(F)cc2F)n1 | > 46.1 µg/mL
20 | COc1ccccc1OCC(=O)NC1CC(C)(C)NC(C)(C)C1 | 41.7 µg/mL (≈ 130 µM)
21 | CC1CCCCC1NC(=O)CCS(=O)(=O)c1ccc(Cl)cc1 (stereo not drawn) | 22.8 µg/mL (≈ 66.3 µM)
22 | O=C(NC1CCCCC1)NC1C2CC3CC(C2)CC1C3 (stereo not drawn) | 2.3 µg/mL (≈ 8.32 µM)
23 | C[C@@H](C(=O)OCC(=O)c1ccc(F)c(F)c1)N1C(=O)C2CCCCC2C1=O (stereo partly drawn) | > 56.9 µg/mL
24 | O=C1OC(N2C(=O)CC[C@H]2C(=O)NCC2CCCO2)c2ccccc21 (stereo partly drawn) | > 51.7 µg/mL

Row | SMILES | solubility kinetic
25 | CCn1c(SCc2ccccc2)nc2cc(S(N)(=O)=O)ccc21 | 2.2 µg/mL (≈ 6.33 µM)
26 | COc1ccc(S(=O)(=O)N2CCCN(C)CC2)cc1.Cl | > 48.1 µg/mL
27 | Cc1ccc(NC(=O)C2CCCN2C(=O)NC2CCCCC2)cc1 (stereo not drawn) | 1.9 µg/mL (≈ 5.77 µM)
28 | CC(C)N(Cc1ccccc1)C(=O)CCc1ccccc1 | 36.8 µg/mL (≈ 131 µM)
29 | CCOC(=O)CC(c1ccc([N+](=O)[O-])cc1)n1c(C)ccc1C (stereo not drawn) | 32.9 µg/mL (≈ 104 µM)
30 | CCCOc1ccc(CCCN=C(N)N)cc1Cl.O=S(=O)(O)O | 42.2 µg/mL
31 | Cl.O=c1cn[nH]c2ccccc12 | > 27.4 µg/mL
32 | CC(C)(CNS(=O)(=O)c1cccs1)N1CCOCC1 | > 45.7 µg/mL
33 | O=C(O)c1cccc(Nc2ccncc2[N+](=O)[O-])c1 | > 38.9 µg/mL
34 | Cc1cccc(C)c1NC(=O)C1CC2CCC1C2 (stereo not drawn) | 12.6 µg/mL (≈ 51.8 µM)
35 | Cc1ccc(OCC(=O)Nc2cc(C)on2)c([N+](=O)[O-])n1 | 18 µg/mL (≈ 61.6 µM)
36 | CCN(CC)S(=O)(=O)c1ccc2[nH]c(=O)c3ccccc3c2c1 | < 0.4 µg/mL
37 | Cc1ccoc1C(=O)N1CCN(C(=O)c2occc2C)CC1 | > 45.3 µg/mL
38 | CC1CN(CC(=O)Nc2nc3ccccc3s2)CC(C)O1 (stereo not drawn) | 39 µg/mL (≈ 128 µM)
39 | O=C(COc1ccc(F)cc1)Nc1ccc2c(c1)OCCO2 | 7.9 µg/mL (≈ 26 µM)
40 | Fc1ccc2c(c1)C1OCCCC1C(c1ccccc1)N2 (stereo not drawn) | < 0.6 µg/mL
41 | Nc1ccc(Sc2ccccc2Cl)nc1 | > 35.5 µg/mL
42 | CC(=O)NCCc1ccc(C(=O)COC(=O)C2CCCCC2)cc1 | 33.4 µg/mL (≈ 101 µM)
43 | COc1ccc(CC(=O)Nc2ccc(N(C)C)c3ccccc23)cc1 | 7.6 µg/mL (≈ 22.7 µM)
44 | COc1cccc(C2NC(=O)NC(C)=C2C(=O)OCC2CCCO2)c1 (stereo not drawn) | 44.9 µg/mL (≈ 130 µM)
45 | CC(C)(C)c1ccc(C(=O)NCC(=O)N2CCCCCC2)cc1 | > 47.5 µg/mL
46 | O=C1N=C(N2CCOCC2)S/C1=C\c1cccs1 | > 42.1 µg/mL
47 | CC(=O)CC(c1ccccc1)S(=O)(=O)c1ccc([N+](=O)[O-])cc1 (stereo not drawn) | > 50 µg/mL
48 | COc1cccc(-n2cn[nH]c2=S)c1 | > 31.1 µg/mL

Row | SMILES | solubility kinetic
49 | O=c1c(Cc2c(F)cccc2Cl)c(O)ccn1C1CC1 | > 44.1 µg/mL
50 | CCOC(=O)C1CCN(C(=O)COC(=O)/C=C/c2ccc([N+](=O)[O-])cc2)CC1 | 18.7 µg/mL (≈ 47.9 µM)
51 | CP(=O)(Nc1ccccc1)C(Cl)(Cl)Cl (stereo not drawn) | > 40.9 µg/mL
52 | O=C(c1ccccc1F)N1CCOCC1 | > 31.4 µg/mL
53 | CSc1nc(-c2cccs2)c(C#N)c(=O)[nH]1 | 37.3 µg/mL (≈ 150 µM)
54 | COc1cc(-c2nnc(SCc3cc(=O)oc4cc(O)c(O)cc34)o2)cc(OC)c1OC | > 68.8 µg/mL
55 | C=CCNC(=S)Nc1ccc2cn[nH]c2c1 | > 34.8 µg/mL
56 | COC(=O)c1c(NC(=O)C(Cl)Cl)sc2c1C(C(=O)OC)CC2 (stereo not drawn) | 8.6 µg/mL (≈ 23.5 µM)
57 | COc1cc2c(cc1OC)CN(C(=O)Cn1ccccc1=O)CC2 | > 49.3 µg/mL
58 | CN(C)Cc1cc2ccccc2c2c1COC2 | 31.5 µg/mL (≈ 139 µM)
59 | Cc1ccc(S(=O)(=O)c2c[nH]c3ccc(Cl)cc3c2=O)cc1 | < 0.7 µg/mL
60 | Cc1c2n(c3ccccc13)CC/C2=N\O | 4.9 µg/mL (≈ 24.5 µM)
61 | Cc1ccn2c(C(=O)NN=C3CCCCCCC3)c(C)nc2c1 | > 46.9 µg/mL
62 | Cc1cc(=O)oc2cc(OCC(=O)N3CCC(C(N)=O)CC3)ccc12 | > 51.7 µg/mL
63 | Cc1ccc(NC2(C#N)C(=O)Nc3ccccc32)cc1C (stereo not drawn) | 23.3 µg/mL (≈ 84 µM)
64 | Cc1cc(NC(=O)COC(=O)c2ccc(C)c(C)c2)no1 | 3.7 µg/mL (≈ 12.8 µM)
65 | COc1ccc(C(=O)Nc2cccc3nc(C)ccc23)cc1OC | 16.6 µg/mL (≈ 51.5 µM)
66 | Cc1cccc(COC(=O)C(Cc2ccccc2)NC(N)=O)c1 (stereo not drawn) | > 46.9 µg/mL
67 | CC(C(=O)OCC(=O)Nc1ccc(S(N)(=O)=O)cc1)N1C(=O)c2ccccc2C1=O (stereo not drawn) | > 64.7 µg/mL
68 | CCOC(=O)C1CN(S(=O)(=O)c2cc(OC)ccc2OC)C1 | 48.8 µg/mL (≈ 148 µM)
69 | COc1cc(NC(=O)/C=C/c2ccccc2)c(C(=O)O)cc1OC | > 49.1 µg/mL
70 | Cc1ccc(C2=CSC3=NS(=O)(=O)CCN23)cc1 | > 42.1 µg/mL
71 | COC(=O)c1cc(C(=O)NCc2ccc3c(c2)OCO3)cc([N+](=O)[O-])c1 | 2.6 µg/mL (≈ 7.26 µM)
72 | Cc1cc(-c2ccccc2)nc(SC(C(=O)O)c2ccccc2)n1 (stereo not drawn) | 48.1 µg/mL (≈ 143 µM)

Row | SMILES | solubility kinetic
73 | CN(C)c1ccc(NC(=O)c2ccc3nc[nH]c3c2)cc1 | > 42 µg/mL
74 | Cc1nc(C(F)(F)F)ccc1C(=O)Nc1ccccc1F | > 44.7 µg/mL
75 | O=C(CN1CCOCC1)Nc1ccc(Cl)cn1 | > 38.4 µg/mL
76 | C=CCn1c(SC(F)F)nc2scc(-c3ccco3)c2c1=O | < 0.4 µg/mL
77 | Cc1c(-c2nc(-c3ccc(C(C)(C)C)cc3)no2)n(C)oc1=O | < 0.2 µg/mL
78 | O=C(NCCCNC(=O)c1c(F)cccc1F)c1c(F)cccc1F | > 53.1 µg/mL
79 | COc1ccc(S(=O)(=O)N2CCCCC2)cc1NC(=O)C1CC(=O)N(Cc2ccco2)C1 (stereo not drawn) | > 69.2 µg/mL
80 | Cc1ccc(NC(=O)NCc2cccn2C)cc1C | 2.2 µg/mL (≈ 8.55 µM)
81 | C(=C\c1nc(-c2ccncc2)no1)/c1ccccc1 | 3.4 µg/mL (≈ 13.6 µM)
82 | COc1ccc(CCNC(=O)C(=O)NCC2CCNCC2)cc1OC | > 52.4 µg/mL
83 | N#C/C(=C\c1ccc(F)cc1)C(=O)Nc1ccccn1 | 19 µg/mL (≈ 71.1 µM)
84 | Cc1cc(Cl)nc(-c2ccccc2)n1 | 0.3 µg/mL (≈ 1.47 µM)
85 | CSc1nc2ccc(C)cc2c(=O)n1-c1cccnc1 | 8.1 µg/mL (≈ 28.6 µM)
86 | Cc1ccc(C(=O)NCC(=O)NCCCc2ccccc2)s1 | 24.9 µg/mL (≈ 78.7 µM)
87 | O=C(c1ccccc1Cl)N1CCn2c1nc1ccccc12 | 29.5 µg/mL (≈ 99.1 µM)
88 | Cc1ccc(N2C(=O)c3ccccc3C(C)(C)C2=O)cc1 | 12.8 µg/mL (≈ 45.8 µM)
89 | CC(C)(Oc1ccc(Cl)cc1)C(=O)N1CCC(C(N)=O)CC1 | 48.7 µg/mL (≈ 150 µM)
90 | O=c1[nH]c([O-])c(Cc2ccc3c(c2)OCO3)c(=O)[nH]1.[NH4+] | 29.7 µg/mL
91 | COCCNC(=O)C(=O)Nc1cc2c3c(c1)C(C)C(=O)N3CCC2 (stereo not drawn) | 48.7 µg/mL (≈ 147 µM)
92 | Cc1ccc(NC(=O)c2oc3ccccc3c2C)nc1 | 6.4 µg/mL (≈ 24 µM)
93 | CC1(C)[C@H]2CC[C@]1(C)[C@@H](OC(=O)C[N+]1(C)CCOCC1)C2.[I-] | 60.1 µg/mL
94 | CC1(C)C(C(=O)O)N2C(=O)C(NC(=O)Cc3ccccc3)C2S1=O.O (stereo not drawn) | 38.7 µg/mL
95 | O=C(NCc1ccco1)c1ccc(Cn2c(=S)[nH]c3ccccc3c2=O)cc1 | 0.4 µg/mL (≈ 1.02 µM)
96 | O=S(=O)(c1ccc(Cl)nc1)N1CCC(Cc2ccccc2)CC1 | 2.5 µg/mL (≈ 7.13 µM)

Row | SMILES | solubility kinetic
97 | Cc1nc([N+](=O)[O-])cn1CC(O)c1ccccc1 (stereo not drawn) | > 37.1 µg/mL
98 | COc1ccccc1NC(=O)c1cc([N+](=O)[O-])ccc1N1CCOCC1 | 31.2 µg/mL (≈ 87.3 µM)
99 | O=C(Cn1cnc2ccccc2c1=O)c1ccc(OC(F)F)cc1 | 9.2 µg/mL (≈ 27.9 µM)
100 | O=S(=O)(c1ccc(Cl)cc1)N1CCN(c2ncccn2)CC1 | 0.9 µg/mL (≈ 2.66 µM)
101 | O=C(CN1C(=O)c2ccccc2C1=O)Nc1ccccc1N1CCOCC1 | > 54.8 µg/mL
102 | CN1CCN(C(=O)COc2ccc3ccccc3c2)CC1 | > 42.7 µg/mL
103 | CC1CCN(CC(O)Cn2c3ccccc3c3ccccc32)CC1 (stereo not drawn) | 38.7 µg/mL (≈ 120 µM)
104 | FC(F)Oc1ccc(NC(=S)NCc2ccco2)cc1Cl | > 49.9 µg/mL
105 | Br.N=C1CCCN1CC(=O)c1cccs1 | 39 µg/mL
106 | CN1C(=O)C(CC(=O)O)S/C1=N\N=C\c1ccc(O)cc1O (stereo not drawn) | > 48.5 µg/mL
107 | CCN(CC(=O)NC(C)C)C(=O)c1cc(S(=O)(=O)N2CCCCC2)ccc1N1CCCCC1 | 10.7 µg/mL (≈ 22.4 µM)
108 | CCCc1nc2ccccc2c(=O)n1CCc1ccccc1 | 1.7 µg/mL (≈ 5.81 µM)
109 | Cc1ccc(CONC(=O)c2ccc(OC(F)F)cc2)cc1 | 9.5 µg/mL (≈ 30.9 µM)
110 | O=C(N/C(=C/c1ccccc1)C(=O)N1CCCCC1)c1ccco1 | > 48.7 µg/mL
111 | Cc1nc2ccc(NC(=O)C3COc4ccccc4O3)cc2s1 (stereo not drawn) | 30.9 µg/mL (≈ 94.7 µM)
112 | CC(C)C(CCNC1CCN(C)CC1)c1ccc(Cl)cc1 (stereo not drawn) | 33.5 µg/mL (≈ 108 µM)
113 | CC(C)(C)NCC(O)COc1cccc2c1CC(O)C(O)C2 (stereo not drawn) | > 46.4 µg/mL
114 | OCCN(CCO)c1ccc2ccccc2c1 | > 34.7 µg/mL
115 | Cc1ccc(OCC(=O)OCC(=O)NC2CC2)cc1C | > 41.6 µg/mL
116 | CCN1C(=O)/C(=C\c2cccc(OC(=O)c3ccco3)c2)SC1=S | < 0.8 µg/mL
117 | COc1ccccc1NC(=O)/C(C#N)=C/c1cccnc1 | 41.3 µg/mL (≈ 148 µM)
118 | CCOc1cccc2cc(C(=O)NCc3ccc(F)cc3)c(=N)oc12 | 0.7 µg/mL (≈ 2.06 µM)
